The values that follow come from patent US20170290871A1, “METHOD OF TREATING HYPERTENSION” (KING SAUD UNIVERSITY, priority 2016, published 2017).

What all share (format): in vivo, Sprague-Dawley rats
Series [1] concerns hypertension induced rats. The series can be described thus: Plasma lipid profile of hypertension induced rats. As to conditions: captopril 20 mg/kg daily for three weeks, mean ± SD of 6. As to the method: (§1) Male Sprague-Dawley rats were divided into nine groups of six rats each and treated daily for three consecutive weeks. High salt-sucrose solution was given to the rats to induce hypertension in them. […] At the end of the experimental period, arterial blood pressure and heart rate of all rats were recorded. The rats were sacrificed by decapitation and the free running blood was collected for analysis. The systolic blood pressure (SBP), the diastolic blood pressure (DBP) and the heart rate (HR) of the rats were measured by the tail cuff every day during the entire period of study in control, drug and extract treated animals. For the estimation of alanine transaminase (ALT), aspartate transaminase (AST), alkaline phosphatase (ALP), total cholesterol, triglycerides, low-density lipoprotein (LDL) and high density lipoprotein (HDL), blood samples were collected in clot activator gel tubes. The serum was separated by centrifuging the blood samples at 5000 rpm for 10 minutes. Serum biochemical parameters were then measured by using commercially available reagent kits.

The test system of series [2] is hypertension induced rats. The series is described as follows: Blood pressure and heart rate of salt-sucrose hypertension induced rats. The note with it: captopril 20 mg/kg daily for three weeks, mean ± SD of 6. On the procedure: (§2) Male Sprague-Dawley rats were divided into nine groups of six rats each and treated daily for three consecutive weeks. High salt-sucrose solution was given to the rats to induce hypertension in them. […] At the end of the experimental period, arterial blood pressure and heart rate of all rats were recorded. The rats were sacrificed by decapitation and the free running blood was collected for analysis. The systolic blood pressure (SBP), the diastolic blood pressure (DBP) and the heart rate (HR) of the rats were measured by the tail cuff every day during the entire period of study in control, drug and extract treated animals.

Series [3] relates to hypertension induced rats. The series is described as follows: Serum marker enzymes (AST, ALT, ALP) of hypertension induced rats. As to the method: as §1
For series [4], the system named is hypertension induced rats. The series can be described thus: GSH and SOD in tissue homogenates (liver, heart, kidney) of hypertension induced rats. On the procedure: as §2, with “animals. After collecting the blood samples from the rats, their abdominal cavity was opened; heart, liver and kidney were dissected out and homogenized in Tris-HCl buffer solution to make a 20% homogenate. Glutathione (GSH) and superoxide dismutase (SOD) were determined using the method described by Ellman & Misra for assessing the oxidative damage parameters in some organs.” for “animals.”

[5] abbreviates: serum, captopril 20 mg/kg daily for three weeks, mean ± SD of 6.
Setting [6] is: heart homogenate, captopril 20 mg/kg, mean ± SD of 6.
Where [7] appears, read: kidney homogenate, captopril 20 mg/kg, mean ± SD of 6.
Setting [8] is: liver homogenate, captopril 20 mg/kg, mean ± SD of 6.

As for `C[C@H](CS)C(=O)N1CCC[C@H]1C(=O)O` [Captopril, captopril], in series [1], the CHOLESTEROL amounted to 135.42 ± 13.41a* mg/dL, the HDL is given as 41.46 ± 4.55a* mg/dL, the LDL came to 89.23 ± 9.8a* mg/dL and the TRIGLYCERIDES came out at 106.41 ± 9.52a* mg/dL. In series [2], the “Diastolic BP” value came out at 95.56 ± 10.5a* mm Hg, the Heart rate worked out at 328.86 ± 36.14a* beats/min and the “Systolic BP” value is listed as 121.45 ± 10.9a* mm Hg. The “levels of AST, ALT, ALP and lipid profile, in words” value in series [3] is “brought back significantly to near normal”. In series [3] (setting [5]), this compound yielded an ALP of 132.12 ± 17.41a* IU/L, an ALT of 85.44 ± 10.33a* IU/L and an AST of 45.03 ± 5.44a* IU/L. Further, in series [4] (setting [6]), the “Heart GSH” value was found to be 38.78 ± 4.69a^ mM/L and the “Heart SOD” value was 68.92 ± 9.08a^@ U/mg. In series [4] (setting [7]), the “Kidney GSH” value was 31.04 ± 2.78a^@ mM/L and the “Kidney SOD” value was 67.96 ± 6.08a^@ U/mg. For the same compound, in series [4] (setting [8]), the “Liver GSH” value stood at 28.92 ± 4.12a^ mM/L and the “Liver SOD” value was 42.67 ± 5.62a^ U/mg. Moreover, the “levels of enzymic antioxidants, in words” value in series [4] (tissue homogenates) is on record as “retained to near normal values significantly”.
